From PubChem BioAssay (NCI)
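Test compounds were applied to cells in 96-well plates for 48 hours at 5 doses. Abbreviation: GI50, concentration required for 50% inhibition of growth. TGI: total growth inhibition.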

How the values were obtained:
Assay in all cases: NCI-60 cell line screen, 48 h; in the data active = GI50 below about 0.43 µM; inactive = the rest
[1] = test system: 786-0 renal
[2] = test system: A498 renal
[3] = test system: A549 NSCLC
[4] = test system: ACHN renal
[5] = test system: BT-549 breast
[6] = test system: CAKI-1 renal
[7] = test system: CCRF-CEM leukemia
[8] = test system: COLO 205 colon
[9] = test system: DU-145 prostate
[10] = test system: EKVX NSCLC
[11] = test system: HCC-2998 colon
[12] = test system: HCT-116 colon
[13] = test system: HCT-15 colon
[14] = test system: HL-60(TB) leukemia
[15] = test system: HOP-62 NSCLC
[16] = test system: HOP-92 NSCLC
[17] = test system: HS 578T breast
[18] = test system: HT29 colon
[19] = test system: IGROV1 ovarian
[20] = test system: K-562 leukemia
[21] = test system: KM12 colon
[22] = test system: LOX IMVI melanoma
[23] = test system: M14 melanoma
[24] = test system: MALME-3M melanoma
[25] = test system: MCF7 breast
[26] = test system: MDA-MB-231 breast
[27] = test system: MDA-MB-435
[28] = test system: MOLT-4 leukemia
[29] = test system: NCI-H226 lung
[30] = test system: NCI-H23 lung
[31] = test system: NCI-H460 lung
[32] = test system: NCI-H522 lung
[33] = test system: NCI/ADR-RES ovarian
[34] = test system: OVCAR-3 ovarian
[35] = test system: OVCAR-4 ovarian
[36] = test system: OVCAR-5 ovarian
[37] = test system: OVCAR-8 ovarian
[38] = test system: PC-3 prostate
[39] = test system: RPMI-8226 leukemia
[40] = test system: RXF 393 renal
[41] = test system: SF-268 CNS
[42] = test system: SF-295 CNS
[43] = test system: SF-539 CNS
[44] = test system: SK-MEL-2 melanoma
[45] = test system: SK-MEL-28 melanoma
[46] = test system: SK-MEL-5 melanoma
[47] = test system: SK-OV-3 ovarian
[48] = test system: SN12C renal
[49] = test system: SNB-19 CNS
[50] = test system: SNB-75 CNS
[51] = test system: SR leukemia
[52] = test system: SW-620 colon
[53] = test system: T-47D breast
[54] = test system: TK-10 renal
[55] = test system: U251 CNS
[56] = test system: UACC-257 melanoma
[57] = test system: UACC-62 melanoma
[58] = test system: UO-31 renal

Cc1ccc(-c2n[nH]c(=O)n2/N=C\c2ccc([N+](=O)[O-])cc2)cc1
> 94.2 µM: TGI [20] | TGI [27]
97.6 µM: TGI [14]
> 75.9 µM: TGI [26]
> 100 µM: TGI [1] | TGI [2] | TGI [3] | TGI [4] | TGI [5] | TGI [6] | TGI [7] | TGI [8] | TGI [9] | TGI [10] | TGI [11] | TGI [12] | TGI [13] | TGI [15] | TGI [16] | TGI [17] | TGI [18] | TGI [19] | TGI [21] | TGI [22] | TGI [23] | TGI [24] | TGI [25] | TGI [28] | TGI [29] | TGI [30] | TGI [31] | TGI [32] | TGI [33] | TGI [34] | TGI [35] | TGI [36] | TGI [37] | TGI [38] | TGI [39] | TGI [40] | TGI [41] | TGI [42] | TGI [43] | TGI [44] | TGI [45] | TGI [46] | TGI [47] | TGI [48] | TGI [49] | TGI [50] | TGI [51] | TGI [52] | TGI [53] | TGI [54] | TGI [55] | TGI [56] | TGI [57] | TGI [58]

OCCCNc1nccc(-c2c(-c3ccc(F)cc3)nn3cc(C(F)(F)F)ccc23)n1
> 23.4 µM: TGI [53]
> 25 µM: TGI [1] | TGI [2] | TGI [3] | TGI [4] | TGI [5] | TGI [6] | TGI [7] | TGI [8] | TGI [9] | TGI [10] | TGI [11] | TGI [12] | TGI [13] | TGI [14] | TGI [15] | TGI [16] | TGI [17] | TGI [18] | TGI [19] | TGI [20] | TGI [21] | TGI [22] | TGI [23] | TGI [24] | TGI [25] | TGI [26] | TGI [27] | TGI [28] | TGI [29] | TGI [30] | TGI [31] | TGI [32] | TGI [33] | TGI [34] | TGI [35] | TGI [36] | TGI [37] | TGI [38] | TGI [39] | TGI [41] | TGI [42] | TGI [43] | TGI [44] | TGI [45] | TGI [46] | TGI [47] | TGI [48] | TGI [49] | TGI [50] | TGI [51] | TGI [52] | TGI [54] | TGI [55] | TGI [56] | TGI [57] | TGI [58]
inactive: GI50 [1] 10.2 µM | GI50 [2] 12.8 µM | GI50 [3] 17.3 µM | GI50 [4] 9.23 µM | GI50 [5] > 25 µM | GI50 [6] > 21.7 µM | GI50 [7] 11.4 µM | GI50 [8] 12.5 µM | GI50 [9] 12.9 µM | GI50 [10] 20.5 µM | GI50 [11] > 23.4 µM | GI50 [12] 11.7 µM | GI50 [13] 8.1 µM | GI50 [14] > 19.6 µM | GI50 [15] > 23.4 µM | GI50 [16] 8.1 µM | GI50 [17] 19.2 µM | GI50 [18] 7.73 µM | GI50 [19] 12 µM | GI50 [20] 10.4 µM | GI50 [21] 11.1 µM | GI50 [22] 15.3 µM | GI50 [23] 15.4 µM | GI50 [24] 14.8 µM | GI50 [25] 15.1 µM | GI50 [26] 24.6 µM | GI50 [27] 10.1 µM | GI50 [28] 14.3 µM | GI50 [29] 9.49 µM | GI50 [30] > 25 µM | GI50 [31] 9.12 µM | GI50 [32] 16.7 µM | GI50 [33] 8.25 µM | GI50 [34] 15.1 µM | GI50 [35] 10.8 µM | GI50 [36] > 22.9 µM | GI50 [37] 16.9 µM | GI50 [38] 15.1 µM | GI50 [39] 22.9 µM | GI50 [40] 5.86 µM | GI50 [41] 16.3 µM | GI50 [42] 10.3 µM | GI50 [43] > 25 µM | GI50 [44] > 23.1 µM | GI50 [45] 15.9 µM | GI50 [46] 8.4 µM | GI50 [47] 13 µM | GI50 [48] 13.3 µM | GI50 [49] > 25 µM | GI50 [50] > 13.4 µM | GI50 [51] > 25 µM | GI50 [52] > 25 µM | GI50 [53] 8.42 µM | GI50 [54] 15.9 µM | GI50 [55] 19.3 µM | GI50 [56] > 23.4 µM | GI50 [57] 15.1 µM | GI50 [58] 7.07 µM
19.1 µM: TGI [40]
